The values that follow come from US20220226268A1, “COMPOSITIONS AND METHODS FOR TREATING CENTRAL NERVOUS SYSTEM DISORDERS” (PaxMedica, Inc., priority 2019, published 2022).

The conditions of data set [1]: in vivo, cited from earlier work.
The nature of data set [2]: Determination of suramin in plasma and brain tissue of mice after IP or IN administration. The following applies: male, Fmr1-knockout B6.129P2-Fmr1tm1Cgr/J, mouse, Group 1: IP injection 20 mg/kg weekly for four weeks, read-out: Average Brain Tissue to Plasma Partitioning Ratio. It is filed as in vivo, male Fmr1-knockout B6.129P2-Fmr1tm1Cgr/J TG mice.
Experimental: For the study, male Fmr1-knockout B6.129P2-Fmr1tm1Cgr/J TG mice were purchased from Jackson Laboratories, Bar Harbor, Me. These mice were of approximately 8 weeks of age.
Mice were accommodated to the research facility for approximately a week. Body weights of all mice were recorded for health monitoring purposes.
Blood samples were collected from all mice at the end of 12 weeks of age. Brain tissue was harvested from all mice upon sacrifice 13-14 weeks of age. Standard sample preparation and analytical techniques were used to obtain the data.
The data is presented as the average plasma concentration (in both ng/ml and μM) for each animal group the and average brain tissue concentration (in both ng/g and mmol/g). Also presented is the average brain tissue to plasma partition ratio for each group.

As for `Cc1ccc(C(=O)Nc2ccc(S(=O)(=O)O)c3cc(S(=O)(=O)O)cc(S(=O)(=O)O)c23)cc1NC(=O)c1cccc(NC(=O)Nc2cccc(C(=O)Nc3cc(C(=O)Nc4ccc(S(=O)(=O)O)c5cc(S(=O)(=O)O)cc(S(=O)(=O)O)c45)ccc3C)c2)c1` [suramin], the oral bioavailability result in data set [1] (po) is given as “not orally bioavailable”. Besides, in data set [1], the half-life is 41 to 78 days. Besides, the Kp in data set [2] turned out to be 0.03.

One may read the half-life as the time needed for the level to fall by half in the phase considered.
